Assay results reported in publication PMC4759042, “The D‐amino acid transport by the invertebrate SLC6 transporters KAAT1 and CAATCH1 from Manduca sexta” (Physiological Reports, 2016).

Experiments:
KAAT1 (msKAAT1) = molecular target: T1, KAAT1 (msKAAT1) (Manduca sexta, UniProt O76188); assay: two-electrode voltage clamp in oocytes, transport current; type: cell-based; conditions: NaCl 98 mmol/L, pH 7.6, -60 mV; main transport site, up to 300 μmol/L
T1 construct: full-length transporter from cRNA in Xenopus laevis oocytes
T1 sequence (O76188 1-634): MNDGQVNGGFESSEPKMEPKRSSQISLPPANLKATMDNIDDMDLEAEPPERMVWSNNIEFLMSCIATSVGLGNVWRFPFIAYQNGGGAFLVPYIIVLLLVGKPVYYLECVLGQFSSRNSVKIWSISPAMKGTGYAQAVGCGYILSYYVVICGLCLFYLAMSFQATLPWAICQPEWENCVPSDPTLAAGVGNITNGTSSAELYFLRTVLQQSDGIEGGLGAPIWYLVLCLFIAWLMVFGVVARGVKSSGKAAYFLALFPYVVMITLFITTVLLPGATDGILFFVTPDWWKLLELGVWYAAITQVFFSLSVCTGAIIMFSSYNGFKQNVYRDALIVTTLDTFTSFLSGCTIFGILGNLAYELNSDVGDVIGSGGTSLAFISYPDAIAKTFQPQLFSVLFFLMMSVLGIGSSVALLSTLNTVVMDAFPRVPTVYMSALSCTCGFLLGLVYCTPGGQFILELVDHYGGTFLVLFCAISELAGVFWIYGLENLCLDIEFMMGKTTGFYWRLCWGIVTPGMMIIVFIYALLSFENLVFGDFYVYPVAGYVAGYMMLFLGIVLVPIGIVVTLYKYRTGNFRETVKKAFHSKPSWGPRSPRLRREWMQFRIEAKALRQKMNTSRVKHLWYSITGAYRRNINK

CAATCH1 (msCAATCH1) [1] = molecular target: T2, CAATCH1 (msCAATCH1) (Manduca sexta, UniProt Q9U5A9); assay: as above; type: cell-based; conditions: NaCl 98 mmol/L, pH 7.6, -60 mV
T2 construct: full-length transporter from cRNA in Xenopus laevis oocytes
T2 sequence (Q9U5A9 1-633): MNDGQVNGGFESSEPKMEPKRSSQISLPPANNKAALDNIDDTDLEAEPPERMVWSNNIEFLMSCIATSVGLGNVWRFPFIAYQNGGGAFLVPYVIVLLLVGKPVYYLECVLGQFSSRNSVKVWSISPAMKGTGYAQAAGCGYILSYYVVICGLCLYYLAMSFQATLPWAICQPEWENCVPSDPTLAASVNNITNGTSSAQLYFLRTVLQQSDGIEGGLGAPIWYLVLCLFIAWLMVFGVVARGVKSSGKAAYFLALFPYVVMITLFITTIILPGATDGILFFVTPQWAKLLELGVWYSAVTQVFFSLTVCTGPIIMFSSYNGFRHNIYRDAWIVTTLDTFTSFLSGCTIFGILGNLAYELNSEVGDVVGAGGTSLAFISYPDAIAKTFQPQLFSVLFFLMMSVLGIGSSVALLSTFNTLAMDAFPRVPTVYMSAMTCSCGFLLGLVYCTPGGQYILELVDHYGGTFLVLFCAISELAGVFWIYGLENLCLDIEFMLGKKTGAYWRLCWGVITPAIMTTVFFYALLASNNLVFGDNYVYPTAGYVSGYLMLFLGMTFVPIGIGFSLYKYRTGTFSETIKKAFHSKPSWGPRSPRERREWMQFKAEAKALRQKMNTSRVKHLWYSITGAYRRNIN

CAATCH1 (msCAATCH1) [2] = molecular target: T2, CAATCH1 (msCAATCH1); assay: two-electrode voltage clamp in oocytes, block of leak current; type: cell-based; conditions: NaCl 98 mmol/L, pH 7.6, -60 mV; blocker, not transported
[3] = substrate: CC(C)C[C@H](N)C(=O)O; assay: two-electrode voltage clamp in oocytes, transport current; type: cell-based, Manduca sexta; conditions: NaCl 98 mmol/L, pH 7.6, -60 mV, 20-25 °C

Which results are given for CC(C)C[C@@H](N)C(=O)O [D‐leucine]?
two-electrode voltage clamp in oocytes, transport current (KAAT1 (msKAAT1)): increasing concentrations of D‐leucine to the oocyte caused progressively larger transport currents; two-electrode voltage clamp in oocytes, transport current (CAATCH1 (msCAATCH1) [1]; 30-1000 μmol/L): The amplitude of the response to D‐leucine increases with the substrate concentration

N[C@H](CO)C(=O)O [D‐serine] was tested. Which “two-electrode voltage clamp in oocytes, transport current” value (CAATCH1 (msCAATCH1) [1]) did it give?
Its value is “the D‐enantiomer gives rise to a large current”.

CC(C)C[C@H](N)C(=O)O [L‐leucine] was tested. Which “two-electrode voltage clamp in oocytes, block of leak current” value (CAATCH1 (msCAATCH1) [2]) did it give?
Its value is “L‐leucine produces an apparent outward current, actually representing a block of the leak current”.

For N[C@@H](CO)C(=O)O [L‐serine], which “two-electrode voltage clamp in oocytes, block of leak current” value (CAATCH1 (msCAATCH1) [2]) is on record?
The value was “has a blocking effect similar to that of L‐leucine”.

B1: KAAT1 (msKAAT1) (Manduca sexta) (protein)
chain: MNDGQVNGGFESSEPKMEPKRSSQISLPPANLKATMDNIDDMDLEAEPPERMVWSNNIEFLMSCIATSVGLGNVWRFPFIAYQNGGGAFLVPYIIVLLLVGKPVYYLECVLGQFSSRNSVKIWSISPAMKGTGYAQAVGCGYILSYYVVICGLCLFYLAMSFQATLPWAICQPEWENCVPSDPTLAAGVGNITNGTSSAELYFLRTVLQQSDGIEGGLGAPIWYLVLCLFIAWLMVFGVVARGVKSSGKAAYFLALFPYVVMITLFITTVLLPGATDGILFFVTPDWWKLLELGVWYAAITQVFFSLSVCTGAIIMFSSYNGFKQNVYRDALIVTTLDTFTSFLSGCTIFGILGNLAYELNSDVGDVIGSGGTSLAFISYPDAIAKTFQPQLFSVLFFLMMSVLGIGSSVALLSTLNTVVMDAFPRVPTVYMSALSCTCGFLLGLVYCTPGGQFILELVDHYGGTFLVLFCAISELAGVFWIYGLENLCLDIEFMMGKTTGFYWRLCWGIVTPGMMIIVFIYALLSFENLVFGDFYVYPVAGYVAGYMMLFLGIVLVPIGIVVTLYKYRTGNFRETVKKAFHSKPSWGPRSPRLRREWMQFRIEAKALRQKMNTSRVKHLWYSITGAYRRNINK
notes: full-length transporter from cRNA in Xenopus laevis oocytes
How did the K0.5 [3] turn out when B1 was run?
Its K0.5 is 10 µmol/L.
